In patent publication US10004701B2, “Methods and compositions for treating infection” (UNIVERSITY OF ROCHESTER, priority 2012, dated 2018):
Structures can show the parent of a compound that is named as a salt. Where two headings read alike, the source gives them in different places.

How the values were obtained:
Experiment in all cases: AK assay 384-well format, Prestwick library screening
[1] = system: K. pneumoniae; assay type: cell-based, Klebsiella pneumoniae; details: 50 μM final drug concentration; for fold induction at 50 µM: Klebsiella pneumoniae, 3 h
[2] = system: A. baumannii strain 98-37-09; assay type: cell-based, Acinetobacter baumannii; details: 50 μM final drug concentration; for fold induction at 50 µM: Acinetobacter baumannii, 983709, 3 h
[3] = system: E. coli; assay type: cell-based, Escherichia coli; details: 50 μM final drug concentration; for fold induction at 50 µM: Escherichia coli, 3 h
[4] = system: S. aureus strain USA300-0114; assay type: cell-based, Staphylococcus aureus; details: 50 μM final drug concentration; for fold induction at 50 µM: Staphylococcus aureus, USA300, 3 h
[5] = system: P. aeruginosa; assay type: cell-based, Pseudomonas aeruginosa; details: 50 μM final drug concentration; for fold induction at 50 µM: Pseudomonas aeruginosa, 3 h
[6] = system: E. faecium; assay type: cell-based, Enterococcus faecium; details: 50 μM final drug concentration; for fold induction at 50 µM: Enterococcus faecium, 3 h
[7] = system: E. cloacae; assay type: cell-based, Enterobacter cloacae; details: 50 μM final drug concentration; for fold induction at 50 µM: Enterobacter cloacae, 3 h

Structure (SMILES): COc1ccc2c(c1O)-c1c(OC)c(OC)cc3c1[C@H](C2)N(C)CC3 [Isocorydine (+)]
- AK-based Prestwick Library Screening Results, K. pneumoniae (increase in extracellular AK activity) ([1]; planktonic K. pneumoniae, cutoff for positive-scoring molecules 3-fold increase): 0.7
- AK-based Prestwick Library Screening Results, A. baumannii (increase in extracellular AK activity) ([2]; planktonic A. baumannii, cutoff for positive-scoring molecules 3-fold increase): 0.9
- AK-based Prestwick Library Screening Results, E. coli (increase in extracellular AK activity) ([3]; planktonic E. coli, cutoff for positive-scoring molecules 3-fold increase): 0.9
- AK-based Prestwick Library Screening Results, S. aureus (increase in extracellular AK activity) ([4]; planktonic S. aureus, cutoff for positive-scoring molecules 3-fold increase): 0.7
- AK-based Prestwick Library Screening Results, P. aeruginosa (increase in extracellular AK activity) ([5]; planktonic P. aeruginosa, cutoff for positive-scoring molecules 3-fold increase): 0.8
- AK-based Prestwick Library Screening Results, E. faecium (increase in extracellular AK activity) ([6]; planktonic E. faecium, cutoff for positive-scoring molecules 3-fold increase): 0.9
- AK-based Prestwick Library Screening Results, E. cloacae (increase in extracellular AK activity) ([7]; planktonic E. cloacae, cutoff for positive-scoring molecules 3-fold increase): 1.3

Structure (SMILES): COc1ccc([C@@H]2Sc3ccccc3N(CCN(C)C)C(=O)[C@@H]2OC(C)=O)cc1 [Diltiazem hydrochloride]
- fold induction at 50 µM ([1]; planktonic K. pneumoniae, 384-well, cutoff for positive-scoring molecules 3-fold increase, read-out: AK-based Prestwick Library Screening Results: K. pneumoniae (increase in extracellular AK activity)): 1
- fold induction at 50 µM ([2]; planktonic A. baumannii, 384-well, cutoff for positive-scoring molecules 3-fold increase, read-out: AK-based Prestwick Library Screening Results: A. baumannii (increase in extracellular AK activity)): 1
- fold induction at 50 µM ([3]; planktonic E. coli, 384-well, cutoff for positive-scoring molecules 3-fold increase, read-out: AK-based Prestwick Library Screening Results: E. coli (increase in extracellular AK activity)): 1
- fold induction at 50 µM ([4]; planktonic S. aureus, 384-well, cutoff for positive-scoring molecules 3-fold increase, read-out: AK-based Prestwick Library Screening Results: S. aureus (increase in extracellular AK activity)): 0.8
- fold induction at 50 µM ([5]; planktonic P. aeruginosa, 384-well, cutoff for positive-scoring molecules 3-fold increase, read-out: AK-based Prestwick Library Screening Results: P. aeruginosa (increase in extracellular AK activity)): 0.9
- fold induction at 50 µM ([6]; planktonic E. faecium, 384-well, cutoff for positive-scoring molecules 3-fold increase, read-out: AK-based Prestwick Library Screening Results: E. faecium (increase in extracellular AK activity)): 0.9
- fold induction at 50 µM ([7]; planktonic E. cloacae, 384-well, cutoff for positive-scoring molecules 3-fold increase, read-out: AK-based Prestwick Library Screening Results: E. cloacae (increase in extracellular AK activity)): 1.5

Structure (SMILES): NCC1(CC(=O)O)CCCCC1 [Gabapentin]
- fold induction at 50 µM ([1]; […], read-out: AK-based Prestwick Library Screening Results, K. pneumoniae (fold increase in extracellular AK activity)): 1.1
- fold induction at 50 µM ([2]; […], read-out: AK-based Prestwick Library Screening Results, A. baumannii (fold increase in extracellular AK activity)): 1.4
- fold induction at 50 µM ([3]; […], read-out: AK-based Prestwick Library Screening Results, E. coli (fold increase in extracellular AK activity)): 1.4
- fold induction at 50 µM ([4]; […], read-out: AK-based Prestwick Library Screening Results, S. aureus (fold increase in extracellular AK activity)): 1.5
- fold induction at 50 µM ([5]; […], read-out: AK-based Prestwick Library Screening Results, P. aeruginosa (fold increase in extracellular AK activity)): 1.3
- fold induction at 50 µM ([6]; […], read-out: AK-based Prestwick Library Screening Results, E. faecium (fold increase in extracellular AK activity)): 1
- fold induction at 50 µM ([7]; […], read-out: AK-based Prestwick Library Screening Results, E. cloacae (fold increase in extracellular AK activity)): 1.6

Structure (SMILES): CCCCc1ccc(C(=O)O)nc1 [Fusaric acid]
- fold induction at 50 µM ([1]; planktonic K. pneumoniae, […], read-out: AK-based Prestwick Library Screening Results, K. pneumoniae (increase in extracellular AK activity)): 0.9
- fold induction at 50 µM ([2]; planktonic A. baumannii, […], read-out: AK-based Prestwick Library Screening Results, A. baumannii (increase in extracellular AK activity)): 0.9
- fold induction at 50 µM ([3]; planktonic E. coli, […], read-out: AK-based Prestwick Library Screening Results, E. coli (increase in extracellular AK activity)): 0.8
- fold induction at 50 µM ([4]; planktonic S. aureus, […], read-out: AK-based Prestwick Library Screening Results, S. aureus (increase in extracellular AK activity)): 0.9
- fold induction at 50 µM ([5]; planktonic P. aeruginosa, […], read-out: AK-based Prestwick Library Screening Results, P. aeruginosa (increase in extracellular AK activity)): 1.1
- fold induction at 50 µM ([6]; planktonic E. faecium, […], read-out: AK-based Prestwick Library Screening Results, E. faecium (increase in extracellular AK activity)): 1.1
- fold induction at 50 µM ([7]; planktonic E. cloacae, […], read-out: AK-based Prestwick Library Screening Results, E. cloacae (increase in extracellular AK activity)): 1.2

Structure (SMILES): COc1ccc(C2CNC(=O)C2)cc1OC1CCCC1 (centres unmarked) [Rolipram]
- fold induction at 50 µM ([1]; cutoff for positive-scoring molecules 3-fold increase, read-out: AK-based Prestwick Library Screening Results, K. pneumoniae (fold increase in extracellular AK activity)): 1
- fold induction at 50 µM ([2]; cutoff for positive-scoring molecules 3-fold increase, read-out: AK-based Prestwick Library Screening Results, A. baumannii (fold increase in extracellular AK activity)): 1.2
- fold induction at 50 µM ([3]; cutoff for positive-scoring molecules 3-fold increase, read-out: AK-based Prestwick Library Screening Results, E. coli (fold increase in extracellular AK activity)): 1.1
- fold induction at 50 µM ([4]; cutoff for positive-scoring molecules 3-fold increase, read-out: AK-based Prestwick Library Screening Results, S. aureus (fold increase in extracellular AK activity)): 1.3
- fold induction at 50 µM ([5]; cutoff for positive-scoring molecules 3-fold increase, read-out: AK-based Prestwick Library Screening Results, P. aeruginosa (fold increase in extracellular AK activity)): 1.2
- fold induction at 50 µM ([6]; cutoff for positive-scoring molecules 3-fold increase, read-out: AK-based Prestwick Library Screening Results, E. faecium (fold increase in extracellular AK activity)): 1
- fold induction at 50 µM ([7]; cutoff for positive-scoring molecules 3-fold increase, read-out: AK-based Prestwick Library Screening Results, E. cloacae (fold increase in extracellular AK activity)): 1.7

Structure (SMILES): COc1cc(OC)c(C(=O)CCCN2CCCC2)c(OC)c1 [Buflomedil hydrochloride]
- fold induction at 50 µM ([1]; planktonic K. pneumoniae, cutoff for positive-scoring molecules 3-fold increase, read-out: AK-based Prestwick Library Screening Results, K. pneumoniae (increase in extracellular AK activity)): 0.6
- fold induction at 50 µM ([2]; planktonic A. baumannii, cutoff for positive-scoring molecules 3-fold increase, read-out: AK-based Prestwick Library Screening Results, A. baumannii (increase in extracellular AK activity)): 0.7
- fold induction at 50 µM ([3]; planktonic E. coli, cutoff for positive-scoring molecules 3-fold increase, read-out: AK-based Prestwick Library Screening Results, E. coli (increase in extracellular AK activity)): 0.8
- fold induction at 50 µM ([4]; planktonic S. aureus, cutoff for positive-scoring molecules 3-fold increase, read-out: AK-based Prestwick Library Screening Results, S. aureus (increase in extracellular AK activity)): 0.6
- fold induction at 50 µM ([5]; planktonic P. aeruginosa, cutoff for positive-scoring molecules 3-fold increase, read-out: AK-based Prestwick Library Screening Results, P. aeruginosa (increase in extracellular AK activity)): 0.8
- fold induction at 50 µM ([6]; planktonic E. faecium, cutoff for positive-scoring molecules 3-fold increase, read-out: AK-based Prestwick Library Screening Results, E. faecium (increase in extracellular AK activity)): 0.8
- fold induction at 50 µM ([7]; planktonic E. cloacae, cutoff for positive-scoring molecules 3-fold increase, read-out: AK-based Prestwick Library Screening Results, E. cloacae (increase in extracellular AK activity)): 0.9

Structure (SMILES): CC(=O)O[C@]1(C(C)=O)CC[C@H]2[C@@H]3C=C(C)C4=CC(=O)CC[C@@H]4[C@H]3CC[C@@]21C [Nomegestrol acetate]
- fold induction at 50 µM ([1]; planktonic K. pneumoniae, positive cutoff 3-fold increase, read-out: AK-based Prestwick library screening result, K. pneumoniae (fold increase in extracellular AK activity)): 1.1
- fold induction at 50 µM ([2]; planktonic A. baumannii, positive cutoff 3-fold increase, read-out: AK-based Prestwick library screening result, A. baumannii (fold increase in extracellular AK activity)): 1.1
- fold induction at 50 µM ([3]; planktonic E. coli, positive cutoff 3-fold increase, read-out: AK-based Prestwick library screening result, E. coli (fold increase in extracellular AK activity)): 1.1
- fold induction at 50 µM ([4]; planktonic S. aureus, positive cutoff 3-fold increase, read-out: AK-based Prestwick library screening result, S. aureus (fold increase in extracellular AK activity)): 1
- fold induction at 50 µM ([5]; planktonic P. aeruginosa, positive cutoff 3-fold increase, read-out: AK-based Prestwick library screening result, P. aeruginosa (fold increase in extracellular AK activity)): 1.1
- fold induction at 50 µM ([6]; planktonic E. faecium, positive cutoff 3-fold increase, read-out: AK-based Prestwick library screening result, E. faecium (fold increase in extracellular AK activity)): 1.2
- fold induction at 50 µM ([7]; planktonic E. cloacae, positive cutoff 3-fold increase, read-out: AK-based Prestwick library screening result, E. cloacae (fold increase in extracellular AK activity)): 1.5

Structure (SMILES): O=C1C=CC(=O)c2c1ccc1c2ccc2ccccc21 [Chrysene-1,4-quinone]
- fold induction at 50 µM ([1]; planktonic, […], read-out: AK-based Prestwick Library Screening Results, K. pneumoniae (fold increase in extracellular AK activity)): 0.8
- fold induction at 50 µM ([2]; planktonic, […], read-out: AK-based Prestwick Library Screening Results, A. baumannii (fold increase in extracellular AK activity)): 0.8
- fold induction at 50 µM ([3]; planktonic, […], read-out: AK-based Prestwick Library Screening Results, E. coli (fold increase in extracellular AK activity)): 1.1
- fold induction at 50 µM ([4]; planktonic, […], read-out: AK-based Prestwick Library Screening Results, S. aureus (fold increase in extracellular AK activity)): 0.1
- fold induction at 50 µM ([5]; planktonic, […], read-out: AK-based Prestwick Library Screening Results, P. aeruginosa (fold increase in extracellular AK activity)): 1
- fold induction at 50 µM ([6]; planktonic, […], read-out: AK-based Prestwick Library Screening Results, E. faecium (fold increase in extracellular AK activity)): 0.9
- fold induction at 50 µM ([7]; planktonic, […], read-out: AK-based Prestwick Library Screening Results, E. cloacae (fold increase in extracellular AK activity)): 1.4
